Patent US20130172306A1, “USE OF AN ESTROGEN DERIVATIVE FOR THE MANUFACTURE OF PHARMACEUTICAL COMPOSITIONS USEFUL FOR THE TREATMENT AND/OR PREVENTION OF PSYCHIATRIC DISEASES AND FOR THE TREATMENT AND PREVENTION OF SAID DISEASES” (priority 2010, published 2013)

What was measured:
depression = conditions: preclinical and clinical studies from the literature; cited from earlier work
[1] = test system: ovariectomised female Sprague-Dawley rats; assay: novelty suppressed feeding (NSF) test; format: in vivo, rat; conditions: through a stomach tube, tested two hours after administration, after 24 h food deprivation, versus vehicle, p<0.05
Method: In the course of our experiment the active agent 17-alpha-estradiol of formula (I) was tested in the animal model “novelty suppressed feeding” (NSF). NFS is a conflict test during which the subject of the test has to resolve a conflict between the stimulus of urgent food intake and the anxiety induced by a novel environment [Bodnoff S R et al.: The effects of chronic antidepressant treatment in an animal model of anxiety. Psychopharmacology (Berl) 95:298-302 (1988)]; Bodnoff S R et al.: A comparison of the effects of diazepam versus several typical and atypical anti-depressant drugs in an animal model of anxiety. Psychopharmacology (Berl) 97:277-279 (1989)]. The NSF model has widespread use in studying efficiency and mechanism of antidepressant drugs and in identification of new antidepressant drugs [Santarelli L et al.: Requirement of hippocampal neurogenesis for the behavioral effects of antidepressants. Science 301:805-809 (2003); Warner-Schmidt J L et al.: VEGF is an essential mediator of the neurogenic and behavioral actions of antidepressants. […]
At the beginning of the NSF test the test animal was placed in a corner of a 75×75×50 cm dark Plexiglas cage. […] The time from the start of the test to the beginning of food intake (first biting) was measured and recorded. Every test was recorded by means of a video camera suspended over the cage. […]

[2] = test system: LAPC-4 prostate tumour cells; conditions: cell cultures; Kuiao Y et al. 2007; cited from earlier work
SK—N—SH cells = conditions: Green P S et al. 1997; cited from earlier work
[3] = test system: LAPC-4 prostate tumour xenograft; conditions: xenograft animals; Kuiao Y et al. 2007; cited from earlier work

| Structure (SMILES) | antidepressant effect (depression) | time from the start of the test to the beginning of food intake (first biting) ([1]; A50 group: 50 μg/kg (b47 prints 50 mg/kg)) | time from the start of the test to the beginning of food intake (first biting) ([1]; A150 group: 150 μg/kg (b47 prints 150 mg/kg)) | proliferation of LAPC-4 prostate tumour cells [2] | neuroprotective effect (SK—N—SH cells) | increase of the tumour [3] |
| --- | --- | --- | --- | --- | --- | --- |
| C[C@]12CC[C@@H]3c4ccc(O)cc4CC[C@H]3[C@@H]1CC[C@@H]2O [17-beta-estradiol] | no antidepressant effect |  |  |  |  |  |
| C[C@]12CC[C@@H]3c4ccc(O)cc4CC[C@H]3[C@@H]1CC[C@H]2O [17-alpha-estradiol, estra-1,3,5(10)-triene-3,17α-diol] |  | shorter time than the control animals | shorter time than the control animals | inhibits proliferation | had a neuroprotective effect | inhibits |
